Source: paper PMC10386886, “First-in-class multifunctional TYMS nonclassical antifolate inhibitor with potent in vivo activity that prolongs survival” (JCI Insight, 2023)
Read-outs that look alike come from different tables or passages of the source.

Assays:
DHFR = biological target: T1, DHFR (Homo sapiens, UniProt P00374); assay: Absorbance-based DHFR activity assay; type: biochemical
T1 construct: purchased Sigma D6566 (kit CS0340)
T1 sequence (P00374 1-187): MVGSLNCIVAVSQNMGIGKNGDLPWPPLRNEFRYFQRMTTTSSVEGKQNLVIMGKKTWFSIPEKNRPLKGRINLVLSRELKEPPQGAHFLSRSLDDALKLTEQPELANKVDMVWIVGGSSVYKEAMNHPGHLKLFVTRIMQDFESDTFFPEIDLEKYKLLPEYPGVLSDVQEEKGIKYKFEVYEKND
Method: DHFR assay kit (Sigma Aldrich, Cat # CS0340) as described by the manufacturer. 0.1-unit DHFR
analogues or control drugs, 6 μL NADPH Cat # N6505 solution and 5 μl of dihydrofolic acid (DHFR
substrate) (Sigma, Cat # D7006). The reaction was then read on the spectrophotometer at 340 nm at
22 °C every 15 seconds for 2.5 minutes.

purified human TYMS [1] = biological target: T2, purified human TYMS (Homo sapiens, UniProt P04818); assay: Tritium-based TYMS catalytic activity assay; type: biochemical; conditions: for TS activity, comparison at decreasing drug concentrations: Figure 6C; for TS activity (conversion of dUMP) in the presence of drug: drug 250 μM, 10 μg/mL TS protein, Figure 1B
T2 construct: 6xHis (N); made in house; host or cells: E. coli BL21 (DE3), vector pQE80L-hTYMS
T2 sequence (P04818 whole entry): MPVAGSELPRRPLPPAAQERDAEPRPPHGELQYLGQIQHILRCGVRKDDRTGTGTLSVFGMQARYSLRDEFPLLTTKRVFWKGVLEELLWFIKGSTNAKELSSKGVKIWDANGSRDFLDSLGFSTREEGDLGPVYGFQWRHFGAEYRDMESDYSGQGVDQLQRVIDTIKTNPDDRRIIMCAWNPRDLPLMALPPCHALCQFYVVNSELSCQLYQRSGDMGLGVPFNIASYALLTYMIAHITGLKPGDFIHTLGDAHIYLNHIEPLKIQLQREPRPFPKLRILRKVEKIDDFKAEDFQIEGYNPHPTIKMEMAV
Method: To determine the inhibition of TYMS activity, we utilized a tritium-based TYMS catalytic assay (Figure 1A) to quantify the conversion of dUMP, which is proportional to TYMS activity ([33]). The assay was based on a previously published protocol ([33]) and modified to determine the amount of purified human TYMS (hTYMS) to be used in the conversion of dUMP to dTMP. […]
Tritium based TYMS catalytic activity assay
The catalytic activity of TYMS was determined by measuring the release of [3H] from [5-3H]dUMP (ViTrax, Cat # VT122) resulting from the conversion of dUMP to dTMP as previously described (2, 3).
The reaction conditions were optimized to determine the amount of TYMS protein needed to establish […]
reactions performed without TYMS or without the 5,10-methylene tetrahydrofolate (5,10-mTHF) cofactor (Supplemental Figure 2 and Supplemental methods). Reactions were performed in 50 mM KH2PO4 (Sigma Aldrich, Cat # P0662) at pH 7.2 using 2 µg of purified human TYMS. Reactions were performed in a final volume of 200 µL with 100 mM β-mercaptoethanol (Sigma Aldrich, Cat # M7522), 40 µM dUMP (Sigma Aldrich, Cat # D3876), 100 µM 5,10-mTHF, and the [5-3H]dUMP tracer (ViTrax, Cat # VT122) accounting for 0.06% of the final dUMP concentration in the reaction. The 5,10-mTHF used in the reaction was separately generated from tetrahydrofolic acid (Sigma Aldrich, Cat # T3125) by dissolving the solid in 10 mM KH2PO4 with 143 mM β-mercaptoethanol (1:100 from 14.3 M pure liquid), and 6.35 mM formaldehyde (Sigma Aldrich, Cat # 47608) to yield a 100 mM stock solution of 5,10- mTHF. Reactions were initiated by the addition of the dUMP substrate and 5,10-mTHF cofactor, then incubated at 37 °C for 30 minutes. […]
before the reaction was initiated by the addition of the dUMP substrate and 5,10-mTHF cofactor.
Reactions were terminated by the addition of 100 µL of ice-cold 20% trichloroacetic acid (Sigma Aldrich, Cat # T6399), then excess [5-3H]dUMP was removed by the addition of 200 µL of an albumin-coated activated charcoal solution. The albumin-coated activated charcoal solution was prepared by mixing 10 g of acid- washed activated dextran coated charcoal (Sigma Aldrich, Cat # C6241) with 2.5 g of bovine albumin (Sigma Aldrich, Cat # A1933) in 100 mL of H2O. The suspension was incubated at room temperature for 30 minutes and then centrifuged for 30 minutes at 10,000 x g. Then 150 µL of the supernatant was collected and added to 5 mL of ultima gold liquid scintillation cocktail (Perkin Elmer, Cat # 6013326, lot: 77-19085), and scintillation measurements were perform using a liquid scintillation counter (Beckman Coulter LS6500) to determine [3H]H2O levels in each sample. For all experiments, positive control reactions were performed with no drug representing 100% TYMS activity, and negative

purified human TYMS [2] = biological target: T2, purified human TYMS; assay: Competitive drug displacement assay (tritium TYMS assay); type: biochemical; conditions: for dUMP conversion with increasing 5,10-mTHF concentration / dUMP conversion with increasing dUMP concentration: TS preincubated with drug, Figure 7
Method: For these experiments the TYMS protein was first incubated with each drug, and the reaction was then initiated by addition of 5,10-mTHF and dUMP using different concentrations of either 5,10-mTHF or dUMP to change the substrate/drug ratio. If there was competition between one of the substrates and the drug for the same binding site, then increasing the substrate concentration would displace more of the prebound drug and shift the equilibrium toward the enzyme/substrate complex, thus allowing the conversion of dUMP to proceed (Figure 7A). […]
all components including 2 µg TYMS protein to show the range of the assay, the background signal, and the dependence on 5,10-mTHF (Supplemental Figure 2C). To determine the signal from the [5-3H]dUMP tracer used in each reaction the same amount of the dUMP substrate with the [5-3H]dUMP tracer accounting for 0.06% of the final dUMP concentration was added directly to 5 mL of ultima gold liquid scintillation cocktail (Supplemental Figure 2C).
All reactions were performed in biological duplicate and technical duplicate. Results were analyzed using GraphPad Prism 9.
Competitive drug displacement assay
The tritium based TYMS catalytic activity assay was modified to determine if TYMS inhibition from 19-S, 19-S5, and 19-S7 was the result of competitive binding with either the dUMP substrate or the 5,10-mTHF cofactor. The competitive drug displacement assay utilized the standard reaction conditions for the tritium-based TYMS catalytic activity assay including 40 µM dUMP (Sigma Aldrich, Cat # D3876) with the [5- 3H]dUMP tracer (ViTrax, VT122) accounting for 0.06% of the final dUMP concentration and 100 µM 5,10- methylene tetrahydrofolate (defined as 1x dUMP and 1x 5,10-mTHF). Concentrations of total dUMP and 5,10- mTHF were then changed relative to these 1x concentrations to concisely indicate the changes in either the substrate or cofactor concentration. The highest 5x concentration of 5,10 - […]
5x concentration of total dUMP was not limited by solubility, although increases were performed in the same increments as 5,10-mTHF for comparison and 0.06% of the [5-3H]dUMP tracer was maintained at all concentrations. The remaining components in each 200 µL reaction were consistent in all reactions and included 2 µg of purified human TYMS in 50 mM KH2PO4 (Sigma Aldrich, Cat # P0662) and 100 mM β- mercaptoethanol (Sigma Aldrich, Cat # M7522). Control antifolate inhibitor PEM (Sigma Aldrich, Cat # PHR1596) was performed for reference of a TYMS specific classical antifolate and to […]
Human TYMS and DHFR preparation
Human Thymidylate Synthase (hTYMS) and human Dihydrofolate Reductase (hDHFR) were both expressed in BL21 (DE3) E. coli cells, using a standard BL21 transformation protocol, with the expression vector pQE80L-hTYMS (gift from Maria Paola Costi, University of Modena and Reggio Emilio, Italy) and pET100/D- TOPO (Invitrogen, Cat # K10001), respectively. Both vectors contained an N-terminal 6x Histidine tag attached to either hTYMS or hDHFR. After bacterial transformation, cells

MIA PaCa-2 cells = assay: MTS viability assay, MIA PaCa-2; type: cell-based; conditions: Homo sapiens, 72-hour drug treatment, Figure 6E, highest concentration 350 μM
Method: Cells were harvested after 72 hours, and cell pellets were stored at –80°C. […] After 72 hours, cell viability was assessed by reduction of MTS using Cell Titer 96 R Aqueous One Solution Cell Proliferation Assay Kit (Promega, catalog G8081), following manufacturer’s recommendations. […] was measured on a SpectraMax M3 (Molecular Devices). Data were plotted in GraphPad Prism 9 to determine GI50 concentration. Chemical synthesis details, including characterization of each compound, can be found in the Supplemental section associated with this publication.

Structure (SMILES) | TS activity, comparison at decreasing drug concentrations (purified human TYMS [1]) | dUMP conversion with increasing 5,10-mTHF concentration (purified human TYMS [2]) | dUMP conversion with increasing dUMP concentration (purified human TYMS [2]) | TS activity (conversion of dUMP) in the presence of drug (purified human TYMS [1]) | also measured
CCc1nc(N)nc(N)c1-c1ccc(NCCOCCOCCN)c([N+](=O)[O-])c1 [Compound 19-S10] | – | – | – | – | DHFR activity, screen of 19-S series analogs (DHFR; 1 μM, Figure 6B): exception
Nc1nc2[nH]cc(CCc3ccc(C(=O)N[C@@H](CCC(=O)O)C(=O)O)cc3)c2c(=O)[nH]1 [PEM, pemetrexed] | greater TYMS inhibition than the MTX antifolate | increased the dUMP conversion | did not increase dUMP conversion | – | DHFR activity, comparison at reduced drug concentrations (DHFR): less effective against DHFR
CCc1nc(N)nc(N)c1-c1ccc(N(C)Cc2ccc(OC)cc2)c([N+](=O)[O-])c1 [Compound 19-S5] | greater TYMS inhibition than both MTX and PEM | increased the amount of dUMP conversion | the amount of dUMP conversion did not increase | – | GI50 (MIA PaCa-2 cells): 280 nM; DHFR activity, comparison at reduced drug concentrations (DHFR; Figure 6D): potent TYMS and DHFR inhibition; TS activity, screen of 19-S series analogs (purified human TYMS [1]; 250 μM, Figure 6A): inhibited TYMS activity; Mechanism of TYMS inhibition (purified human TYMS [2]): blocking the folate-binding site
O=c1[nH]c(=O)n([C@H]2C[C@H](O)[C@@H](CO)O2)cc1F [FdUrd, 5-fluoro-2′-deoxyuridine] | – | – | – | reduced conversion of dUMP | –
O=c1[nH]c(=O)n([C@@H]2O[C@H](CO)[C@@H](O)[C@H]2O)cc1F [FUrd, 5-fluorouridine] | – | – | – | inactive | –
